Test results reported in ChEMBL document CHEMBL5137077, “Peptide-to-Small Molecule: A Pharmacophore-Guided Small Molecule Lead Generation Strategy from High-Affinity Macrocyclic Peptides” (J Med Chem, 2022).
Positions of bridges follow the written chain, without caps; N, C: chain ends. Non-standard residues stand in square brackets, D forms with d. Residues, ends and D or L forms follow the SMILES beside them. Phe(4-CONH2) = NC(=O)c1ccc(C[C@H](N)C(=O)O)cc1; NHexGly = CCCCCCNCC(=O)O; Sar = CNCC(=O)O

Key:
[1] = target: Indolethylamine N-methyltransferase (Homo sapiens, UniProt O95050); test: Inhibition of N-terminal 6His-tagged full length human recombinant INMT (1 to 263 residues) expressed in Escherichia coli BL21 (DE3) cells using S-(5'-Adenosyl)-L-methionine chloride dihydrochloride and 9H-pyrido[3,4-b]indole as substrate incubated for 2.5 hrs by MTase-Glo assay
[2] = target: T1, Nicotinamide N-methyltransferase (Homo sapiens, UniProt P40261); test: Inhibition of N-terminal 6His-tagged full length human recombinant NNMT (1 to 264 residues) expressed in Escherichia coli BL21 (DE3) cells using S-adenosyl-L-methionine and NAM as substrate incubated for 2 hrs by RapidFire Mass Spectrometry
T1 sequence (P40261 whole entry): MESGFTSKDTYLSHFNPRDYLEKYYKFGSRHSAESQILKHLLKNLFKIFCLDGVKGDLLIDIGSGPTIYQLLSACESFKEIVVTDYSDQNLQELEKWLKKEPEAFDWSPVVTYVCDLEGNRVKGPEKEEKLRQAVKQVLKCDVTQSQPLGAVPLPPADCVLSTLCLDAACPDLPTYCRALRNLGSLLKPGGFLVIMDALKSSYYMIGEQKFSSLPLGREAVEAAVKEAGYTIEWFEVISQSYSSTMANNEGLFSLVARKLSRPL

[3] = target: T1, Nicotinamide N-methyltransferase; test: Inhibition of NNMT in HEK293 cells measured after 20 to 24 hrs by RapidFire Mass Spectrometry; format: cell-based
[4] = target: T1, Nicotinamide N-methyltransferase; test: Inhibition of N-terminal 6His-tagged full length human recombinant NNMT (1 to 264 residues) expressed in Escherichia coli BL21 (DE3) cells using S-adenosyl-L-methionine and NAM as substrate incubated for 22 to 24 hrs by RapidFire Mass Spectrometry
HEK293 = test: Cytotoxicity against HEK293 cells assessed as reduction in ATP incubated for 10 mins by CellTiter-Glo luminescence assay; format: toxicity, cell-based; settings: human, hek293, 10 min

Indolethylamine N-methyltransferase, sequence (O95050 whole entry, the tested form may be a part): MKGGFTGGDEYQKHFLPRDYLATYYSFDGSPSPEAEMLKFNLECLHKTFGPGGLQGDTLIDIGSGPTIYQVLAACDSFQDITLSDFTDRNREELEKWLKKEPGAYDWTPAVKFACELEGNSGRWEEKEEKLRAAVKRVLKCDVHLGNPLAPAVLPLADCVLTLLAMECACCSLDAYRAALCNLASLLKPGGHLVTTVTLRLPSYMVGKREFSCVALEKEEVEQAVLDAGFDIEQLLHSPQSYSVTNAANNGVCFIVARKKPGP

| IC50 [1] [µM] | IC50 [4] [µM] | Structure (SMILES) | further results |
| --- | --- | --- | --- |
| > 100 |  | NCc1nccn1[C@H]1C[C@H](c2nc3ccccc3n2Cc2ccccc2)N(C(=O)c2cnc3[nH]ccc3c2)C1 |  |
| 4 |  | Nc1ncnc2c1ncn2[C@@H]1O[C@H](C[C@@H](N)CC[C@H](N)C(=O)O)[C@@H](O)[C@H]1O [SINEFUNGIN] | IC50 [2]: 5.2 µM; IC50 [3]: > 100 µM |
|  | > 100 | CCCCCCN1CC(=O)N[C@@H](Cc2c[nH]c3ccccc23)C(=O)N2CCC[C@H]2C(=O)N[C@H](C(N)=O)CSCC(=O)N[C@@H](Cc2ccccc2)C(=O)N[C@@H](Cc2ccc(C(N)=O)cc2)C(=O)N[C@@H](C)C(=O)NCC1=O ({CH2CO}-F[Phe(4-CONH2)]AG[NHexGly]WPC-NH2; thioether N-8) |  |
| > 100 |  | Cc1ccc2c(c1)cc([C@H]1C[C@H](n3nc(C)cc3CN)CN1C(=O)c1cnc3[nH]c(C)cc3c1)n2Cc1ccc(Cl)cc1 | CC20 (HEK293): > 10 µM |
| > 100 |  | Cc1ccc2c(c1)cc([C@H]1C[C@H](n3ccnc3CN)CN1C(=O)c1cnc3[nH]ccc3c1)n2Cc1ccc(Cl)cc1 |  |
|  | > 100 | CCCCCCN1CC(=O)N[C@@H](C)C(=O)N2CCC[C@H]2C(=O)N[C@H](C(N)=O)CSCC(=O)N[C@@H](Cc2ccccc2)C(=O)N[C@@H](Cc2ccc(C(N)=O)cc2)C(=O)N[C@@H](CCCNC(=N)N)C(=O)NCC1=O ({CH2CO}-F[Phe(4-CONH2)]RG[NHexGly]APC-NH2; thioether N-8) |  |
| > 100 |  | CCCCCCN1CC(=O)N[C@@H](Cc2c[nH]c3ccccc23)C(=O)N2CCC[C@H]2C(=O)N[C@H](C(=O)NCC(N)=O)CSCC(=O)N[C@@H](Cc2ccccc2)C(=O)N[C@@H](Cc2ccc(C(N)=O)cc2)C(=O)N[C@@H](CCCNC(=N)N)C(=O)NCC1=O ({CH2CO}-F[Phe(4-CONH2)]RG[NHexGly]WPCG-NH2; thioether N-8) |  |
|  | > 100 | C[C@@H]1NC(=O)CNC(=O)[C@H](CCCNC(=N)N)NC(=O)[C@H](Cc2ccc(C(N)=O)cc2)NC(=O)[C@H](Cc2ccccc2)NC(=O)CSC[C@@H](C(N)=O)NC(=O)[C@@H]2CCCN2C(=O)[C@H](Cc2c[nH]c3ccccc23)NC1=O ({CH2CO}-F[Phe(4-CONH2)]RGAWPC-NH2; thioether N-8) |  |
|  | > 30 | CN1CC(=O)N[C@@H](Cc2c[nH]c3ccccc23)C(=O)N2CCC[C@H]2C(=O)N[C@H](C(N)=O)CSCC(=O)N[C@@H](Cc2ccccc2)C(=O)N[C@@H](Cc2ccc(C(N)=O)cc2)C(=O)N[C@@H](CCCNC(=N)N)C(=O)NCC1=O ({CH2CO}-F[Phe(4-CONH2)]RG[Sar]WPC-NH2; thioether N-8) |  |
|  |  | CCCCCCN(CC(=O)N[C@@H](Cc1c[nH]c2ccccc12)C(N)=O)C(=O)CNC(=O)[C@H](CCCNC(=N)N)NC(C)=O (Ac-RG[NHexGly]W-NH2) | IC50 [2]: > 30 µM |
